The numbers were not newly measured in US9970152B2, “Method for functionalizing a solid material surface with self assembling or self aggregating cyclodextrins and products thereof” (Aalborg Universitet, priority 2010, dated 2018), which cites them from elsewhere.

The conditions of this series: in water.

For `OC[C@H]1O[C@@H]2O[C@H]3[C@H](O)[C@@H](O)[C@@H](O[C@H]4[C@H](O)[C@@H](O)[C@@H](O[C@H]5[C@H](O)[C@@H](O)[C@@H](O[C@H]6[C@H](O)[C@@H](O)[C@@H](O[C@H]7[C@H](O)[C@@H](O)[C@@H](O[C@H]1[C@H](O)[C@H]2O)O[C@@H]7CO)O[C@@H]6CO)O[C@@H]5CO)O[C@@H]4CO)O[C@@H]3CO` [α CD], the Solubility was 129.5 g/kg H2O.
